Experimental data: patent US20190336453A1, “ORAL DISPERSIBLE FILM COMPOSITION” (BonAyu Lifesciences Private Limited, priority 2017, published 2019)

Experiments:
Format in all cases: physicochemical
UV assay of actives = settings: UV absorbance at λmax, sample vs standard; ODF samples Examples 3-5
Protocol: A stock solution of 1000 μg/ml of alpha lipoic acid were prepared in methanol and measured absorbance at 322 nm.
Standard β-carotene for identification was prepared in DCM to obtain 1000 μg/mL and measured absorbance at 461 nm.
2 ml of the standard and sample solution of folic acid was taken in marked test tubes. In each test tube, 2 ml of 0.02% potassium permanganate solution, 2 ml 2% […] solution, 2 ml 4 M hydrochloric acid solution, 1 ml 5% ammonium sulphamate solution and 1 ml dye solution (0.1% N, N diethyl aniline dye solution in iso propyl alcohol) added and mixed well, then kept for 15 minute at room temperature. It was absorbance recorded at 535 nm against blank.
2 ml of the standard and sample solution of Vitamin B6 was taken in marked test tubes. In each test tube, 1 ml of ammonium buffer (in water), 1 ml of 20% sodium acetate (in water), 1 ml of 5% boric acid (in water) and 1 ml dye (2,6-di-chloroquinine chorimide) solution added and mixed well. It was absorbance recorded at 650 nm against blank.
The assay were prepared of standard and sample solutions of four actives, that is, lipoic acid, β-carotene, folic acid and Vitamin B6 respectively.

[1] = In-vitro disintegration time during formulation development (saliva stimulant and flavour optimisation)
Source text: The purpose of using saliva stimulating agents is to increase the rate of production of saliva that would aid in the faster disintegration of the rapid dissolving strip formulations.
The concentration of menthol, eucalyptol and sucralose was optimized according to the mouth feel, freshening effect and the formulation was checked for its effect on disintegration time (Table 5).

[2] = Gas chromatography assay of actives in mouth freshener film; settings: for Assay result (%): GC result relative to formula content, mouth freshener film; for GC Result (%): content in mouth freshener film
Source text: Gas Chromatography is quantitative study use to determine assay of actives. GC was done by Bangalore Testing Laboratories Pvt. Ltd., Bangalore (FIG. 8). The GC is used to observe whether the active is intact in the film without its decomposition. Table 15 illustrated all the characteristic peaks of the actives (menthol, thymol, methyl salicylate, eucalyptol) used in the composition.

[3] = Thermogravimetric analysis (TGA); settings: 30-360° C. at 20° C./min
Protocol: Thermogravimetric analysis (TGA) studies (Perkin Elmer Pyris 1, Shelton, Conn., USA) were performed to estimate the thermal stability of the actives and excipients during HME processing. Data were analyzed using Pyris software. The API excipients were heated from 30-360° C. at 20° C./min.

[4] = Raman spectroscopy for stability of active after HME; settings: ODF containing Vitamin B12 (Example 6), Raman spectra
Protocol: Raman spectroscopy is a spectroscopic technique commonly used in chemistry to provide a structural fingerprint by which molecules can be identified. It can identify a particular molecule/API based on the Raman shift. The formulated ODFs were analyzed using Raman spectra for identification of stability of active in the delivery system after processing using HME. The Raman spectra was recorded with a LabRam HR800 (Horiba Jovan Yvon, UK) equipped with a 534-nm Ar—Ne laser. The laser excitation was focused using a 50 objective (Olympus Corporation, Japan) and the scattered light was totally transmitted through the notch filter towards the confocal hole and entrance slit of the spectrograph. The stokes-shifted Raman scatter was dispersed using a […] grating onto a peltier-cooled changed-coupled device (CCD, Andor Technology PLC) to capture a spectrum. Each sample had their spectra measured using […] excitation (at 534 nm) of 250 mW and continuous readout of Raman shift spectrum from 0 to 3500 cm^−1. Spectra were acquired using a 50× objective and a […] confocal hole. A 600 lines/mm rotatable diffraction grating along a path length of 800 mm was used to simultaneously scan a range of frequencies. Raman spectra were collected using a Synapse CCD detector (1024 pixels).

Molecule	Assay of actives Result (%) (UV assay of actives)	Assay result (%) [2] [%]	GC Result (%) [2]	further results
CC1=C(/C=C/C(C)=C/C=C/C(C)=C/C=C/C=C(C)/C=C/C=C(C)/C=C/C2=C(C)CCCC2(C)C)C(C)(C)CCC1 [B carotene]	98.28	–	–	–
O=C(O)CC(O)(CC(=O)O)C(=O)O [Citric acid]	–	–	–	Disintegration time ([1]; saliva stimulating agent at 1 % composition): 14 s; Disintegration time ([1]; saliva stimulating agent at 5 % composition): Less than 10 seconds; Disintegration time ([1]; saliva stimulating agent at 10 % composition): Less than 10 seconds
CC12CCC(CC1)C(C)(C)O2 [Eucalyptol]	–	96.6	0.023(cineole %	–
Nc1nc2ncc(CNc3ccc(C(=O)N[C@@H](CCC(=O)O)C(=O)O)cc3)nc2c(=O)[nH]1 [Folic acid]	99.1	–	–	–
O=C(O)CCCCC1CCSS1 (centres unmarked) [Lipoic acid]	100.5	–	–	–
CC1CCC(C(C)C)C(O)C1 (centres unmarked) [Menthol]	–	92.1	0.035%	–
COC(=O)c1ccccc1O [Methyl Salicylate]	–	92.8	0.052%	–
OC[C@H]1O[C@H](O[C@]2(CCl)O[C@H](CCl)[C@@H](O)[C@@H]2O)[C@H](O)[C@@H](O)[C@H]1Cl [Sucralose]	–	–	–	loss of weight [3]: < 7%
Cc1ccc(C(C)C)c(O)c1 [Thymol]	–	104.3	0.097%	–
Vit B6	99.3	–	–	–
Vitamin B12	–	–	–	stability of active after twin-screw HME processing [4]: does not degrade
